The values below come from patent publication US6949516B2, “Dipeptide apoptosis inhibitors and the use thereof” (Cytovia, Inc., priority 1997, dated 2005).

pIC50: −log10 of the molar value. Where only a bound is given, the exact number is not on record here.

One experiment deals with T1, Caspase-8 (Homo sapiens, UniProt Q14790).
T1 construct: purchased PharMington (PharMingen, a Becton division company, San Diego, Calif.)
The experiment in a line: Recombinant caspase assay with Ac-DEVD-AMC, caspase-8. Conditions: 10 μM Ac-DEVD-AMC, 30 minutes at 37° C. The format is biochemical. The method, then:
(§1) The inhibitory activity of Cbz-Val-Asp-CH2F in recombinant caspase 3, 6, 7 and 8 obtained from PharMington (a Becton division company, San Diego, Calif.) were measured using Ac-DEVD-AMC (SEQ ID NO:1). The amount of each enzyme per assay was as following: 1 ng caspase3, 15 ng caspase6, 2 ng caspase7 and 60 ng caspase8. The enzyme reaction was conducted in 96-well plate using a caspase buffer (20 mM PIPES, 100 mM NaCl, 10 mM DTT, 1 mM EDTA, 0.1% CHAPS and 10% sucrose, pH 7.2) and the reaction was initiated by adding 10 μM Ac-DEVD-AMC (SEQ ID NO:1) (purchased from Quality Controlled Biochemicals, Inc. Hopkinton, Mass.). Twelve concentrations of Cbz-Val-Asp-CH2F ranged from 30 μM to […] were tested after incubation of the compound with recombinant caspases for 30 minutes at 37° C. […] The data was analyzed using GraphPrism software.

Experiment [1] concerns the target T2, Caspase-3 (Homo sapiens, UniProt P42574).
T2 sequence (P42574 29-175 limits assumed): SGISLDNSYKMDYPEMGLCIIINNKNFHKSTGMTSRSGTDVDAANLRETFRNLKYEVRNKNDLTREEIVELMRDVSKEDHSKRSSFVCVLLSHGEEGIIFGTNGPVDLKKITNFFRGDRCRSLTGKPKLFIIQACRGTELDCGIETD
The experiment in a line: Recombinant caspase assay with Ac-DEVD-AMC, caspase-3. The class given is biochemical. Conditions: 10 μM Ac-DEVD-AMC, 30 minutes at 37° C. The method, then:
as §1

Experiment [2] addresses T2, Caspase-3. The experiment in a line: Caspase-3 activity of the dipeptide inhibitors (Table III). The class given is biochemical.
The target in the next experiment is T3, Caspase-6 (Homo sapiens, UniProt P55212).
T3 construct: purchased PharMington (PharMingen, a Becton division company, San Diego, Calif.)
T3 sequence (P55212 24-179 limits assumed): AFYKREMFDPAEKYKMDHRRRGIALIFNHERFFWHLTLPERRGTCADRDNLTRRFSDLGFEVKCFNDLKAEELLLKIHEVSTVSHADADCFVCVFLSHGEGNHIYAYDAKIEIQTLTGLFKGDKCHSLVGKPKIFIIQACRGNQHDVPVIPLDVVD
Nature of the experiment: Recombinant caspase assay with Ac-DEVD-AMC, caspase-6. The class given is biochemical. Conditions: 10 μM Ac-DEVD-AMC, 30 minutes at 37° C. As to the method: as §1

The test system of experiment [3] is PARP cleavage in Jurkat cells. The experiment in a line: Effect of Z-VD-fmk on PARP cleavage in antiFas-treated Jurkat cells (Example 24). The class given is cell-based, human. As to the method: Poly(ADP)ribose polymerase (PARP) was one of the first caspase-3 substrates identified and the cleavage of PARP is still considered to be a near-universal marker for caspase-3 activation and caspase-mediated apoptosis. The ability of an anti-apoptotic compound to block PARP cleavage is therefore a useful indicator of its ability to inhibit apoptosis. The potency of Z-VD-fmk in a PARP cleavage assay was tested using antiFas-treated Jurkat cells. 2×10^6 Jurkat cells were seeded in each well of a 6-well dish and pre-incubated with test compounds for 30 minutes. The cells were then challenged with 500 ng/mL of an agonistic antiFas antibody or PBS for 4 hours. The cells were then harvested, pelleted gently, washed two times with PBS and lysed in RIPA buffer. Aliquots of the lysate were analyzed by SDS-PAGE and the proteins were transferred to PVDF membranes for Western blotting. The primary antibody was a polyclonal antiPARP serum which cross-reacts with both full-length PARP and the caspase-3-generated cleavage product.

In another experiment the test system is HeLa cells. The experiment in a line: Effect of Z-VD-fmk on TNF-α-induced cell death in HeLa cells (calcein AM, Example 25). The format is cell-based. Conditions: TNF-α 25 ng/mL + CHX 30 μg/mL, zero to 500 nM tested. The method, then:
Tumor necrosis factor alpha (TNF-α) can trigger apoptosis in a number of cell types by initiating the caspase cascade and its apoptosis inducing activity can be inhibited by peptide-based caspase inhibitors. However, high concentrations of the inhibitors (50 μM or greater) is required to have good anti-apoptotic effect. HeLa cells, a cell line commonly employed in TNF-α cell death studies, was used here to determine the anti-apoptotic potency of Z-VD-fmk.
HeLa cells were seeded in 48-well multidishes at a density of 50,000 cells per well 24 hours before treatment. They were then pre-incubated with varying concentrations of Z-VD-fmk for 2 hours and challenged with TNF-α (25 ng/mL) and cycloheximide (CHX; 30 μg/mL). The cultures were incubated for an additional 24 hours and dead cells were removed by two washes with PBS. The density of surviving cells was then measured by incubating each culture for 45 minutes with calcein AM, a profluorescent dye which is taken up by living cells and converted to a fluorescent product. The resulting data were expressed as % control values (control values were cells incubated with cycloheximide but without TNF-α).
Z-VD-fmk provided good cytoprotection at concentrations approaching 100 nM.

T1 sequence (Q14790 217-374 limits assumed): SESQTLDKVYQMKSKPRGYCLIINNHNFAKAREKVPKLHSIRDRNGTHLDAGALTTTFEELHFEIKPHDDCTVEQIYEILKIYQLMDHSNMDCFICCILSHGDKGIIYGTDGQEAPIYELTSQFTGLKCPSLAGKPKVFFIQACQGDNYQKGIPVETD

With `CC(C)[C@H](NC(=O)OCc1ccccc1)C(=O)NC(CC(=O)O)C(=O)CF` (stereo partly drawn) [Cbz-Val-Asp-CH2F, Z-Val-Asp-fmk], the negative logarithm of the IC50 (pIC50) (usually the negative decadic logarithm of the IC50, by convention in mol/L) at Caspase-8 is 8.14; on Caspase-3 [1], 7.70; at Caspase-3 [2], 7.40; at Caspase-6, 7.74; in experiment [3] (antiFas-treated Jurkat cells, read-out: IC50, inhibition of PARP cleavage (whole-cell apoptosis model)), above 7.30. In addition, the “inhibition of PARP cleavage” value in experiment [3] (50 nM, antiFas-treated Jurkat cells) is recorded as “still retains much of its inhibitory activity”; in experiment [3] (250 nM, antiFas-treated Jurkat cells), “completely inhibits”; in experiment [3] (500 nM, antiFas-treated Jurkat cells) it was “completely inhibits”. For the same compound, the “potency as inhibitor of PARP cleavage in intact cells, fold relative to Z-VAD-fmk” value in experiment [3] (Jurkat cells) is given as “at least 10 fold”. For the same compound, the “concentration providing good cytoprotection against TNF-α-induced cell death” value with HeLa cells is around 100 nM.
